Results published in patent publication US20170044121A1, “TETRA-O-SUBSTITUTED BUTANE-BRIDGE MODIFIED NDGA DERIVATIVES, THEIR SYNTHESIS AND PHARMAECUTICAL USE” (Erimos Pharmaceuticals LLC, priority 2006, published 2017).
Where two headings read alike, the source gives them in different places.

Tests used:
[1] = test system: TAT transactivation of the HIV-1 LTR promoter (TAT-TRS); assay: cells; type: cell-based; conditions: Human immunodeficiency virus 1, COS-7, 48 h, read-out: SEAP EC50
COS-7 cells = assay: MTT cytotoxicity in COS-7 cells (run with SEAP); type: cell-based, green monkey; conditions: Chlorocebus sabaeus
A549 (lung carcinoma) = assay: MTS cell viability assay, A549; type: cell-based
[2] = test system: HeLa (cervical adenocarcinoma); assay: MTS cell viability assay, HeLa; type: cell-based; conditions: Homo sapiens, HeLa, read-out: HeLa IC50
[3] = test system: apoptosis in cultured cells (DNA fragmentation); assay: TiterTACS DNA fragmentation apoptosis assay; type: cell-based; conditions: TiterTACS apoptosis detection
VEGF = assay: ELISA VEGF assay (DFO-induced hypoxia); type: cell-based; conditions: Homo sapiens, read-out: VEGF IC50
MCP-1 = MCP-1 protein production in TNF-α-treated primary human keratinocytes; type: cell-based; conditions: Keratinocyte, read-out: MCP-1 IC50
[4] = test system: NSCLC cell line panel (9 cell lines); conditions: NSCLC (9 cell lines), 48 hours, SRB
[5] = test system: Colon Cancer cell line panel (6 cell lines); conditions: Colon Cancer (6 cell lines), 48 hours, SRB
[6] = test system: Breast Cancer cell line panel (8 cell lines); conditions: Breast Cancer (8 cell lines), 48 hours, SRB
[7] = test system: Ovarian Cancer cell line panel (6 cell lines); conditions: Ovarian Cancer (6 cell lines), 48 hours, SRB
[8] = test system: Leukemia cell line panel (6 cell lines); conditions: Leukemia (6 cell lines), 48 hours, SRB
[9] = test system: Renal Cancer cell line panel (8 cell lines); conditions: Renal Cancer (8 cell lines), 48 hours, SRB
[10] = test system: Melanoma cell line panel (8 cell lines); conditions: Melanoma (8 cell lines), 48 hours, SRB
[11] = test system: Prostate cell line panel (1 cell line); conditions: Prostate (1 cell line), 48 hours, SRB
[12] = test system: CNS cell line panel (5 cell lines); conditions: CNS (5 cell lines), 48 hours, SRB
Caco-2 cell monolayers [13] = test system: Caco-2 cell monolayers
[14] = test system: NSCLC cell line panel (9 cell lines); assay: cells; conditions: Homo sapiens, 48 h, read-out: LC50
[15] = test system: Colon Cancer cell line panel (6 cell lines); assay: cells; conditions: Homo sapiens, 48 h, read-out: LC50
[16] = test system: Breast Cancer cell line panel (8 cell lines); assay: cells; conditions: Homo sapiens, 48 h, read-out: LC50
[17] = test system: Ovarian Cancer cell line panel (6 cell lines); assay: cells; conditions: Homo sapiens, 48 h, read-out: LC50
[18] = test system: Leukemia cell line panel (6 cell lines); assay: cells; conditions: Homo sapiens, 48 h, read-out: LC50
[19] = test system: Renal Cancer cell line panel (8 cell lines); assay: cells; conditions: Homo sapiens, 48 h, read-out: LC50
[20] = test system: Melanoma cell line panel (8 cell lines); assay: cells; conditions: Homo sapiens, 48 h, read-out: LC50
[21] = test system: Prostate cell line panel (1 cell line); assay: cells; conditions: Homo sapiens, 48 h, read-out: LC50
[22] = test system: CNS cell line panel (5 cell lines); assay: cells; conditions: Homo sapiens, 48 h, read-out: LC50
in vitro [23] = conditions: human
[24] = Non-specific binding to 24-well assay plate without cells; conditions: single well of a 24-well assay plate without cells
survivin = assay: ELISA survivin assay (cell lysates); type: cell-based; conditions: Homo sapiens, survivin protein in cell lysates
in vitro [25] = assay: in vitro
[26] = Caco-2 monolayer permeability study; conditions: human
Caco-2 cell monolayers [27] = assay: Caco-2 monolayer permeability study; conditions: Caco-2, nominal conc. 20 μM
[28] = human, Caco-2, 90 min, 1 μM, pH 7.4
[29] = 90 minutes, duplicate monolayers

c1cc(OCCCN2CCCCC2)c(OCCCN2CCCCC2)cc1CCCCc1ccc(OCCCN2CCCCC2)c(OCCCN2CCCCC2)c1 [Compound D, 1,4-bis{3,4-bis[3-(piperidin-1-yl)propoxy]phenyl}-butane]
EC50 [1]: 0.7 to 0.8 µM
IC50 (COS-7 cells; MTT assay, COS-7 test cells of the SEAP assay, read-out: COS-7 IC50): 0.8 to 0.9 µM
IC50 (A549 (lung carcinoma); MTS assay, read-out: A549 IC50): 1 to 2 µM
IC50 ([2]; MTS assay): 5 to 6 µM
DNA fragmentation [3]: Positive
IC50 (VEGF; VEGF released into media, ELISA): ~4 µM
IC50 (MCP-1; TNF-α-treated PHK, MCP-1 protein production, ELISA): 3 µM
Mean Growth Percent at 10 μM ([4]; 10 μM): 62.77%
TGI [4]: 7.31E−6
Mean Growth Percent at 10 μM ([5]; 10 μM): 40.49%
TGI [5]: 6.45E−6
Mean Growth Percent at 10 μM ([6]; 10 μM): 59.72%
TGI [6]: 2.11E−5
Mean Growth Percent at 10 μM ([7]; 10 μM): 66.18%
TGI [7]: 1.46E−5
Mean Growth Percent at 10 μM ([8]; 10 μM): 12.31%
TGI [8]: 4.28E−6
Mean Growth Percent at 10 μM ([9]; 10 μM): 82.54%
TGI [9]: 1.70E−5
Mean Growth Percent at 10 μM ([10]; 10 μM): 16.46%
TGI [10]: 7.74E−6
Mean Growth Percent at 10 μM ([11]; 10 μM): 2.84%
TGI [11]: 2.76E−5
Mean Growth Percent at 10 μM ([12]; 10 μM): 78.88%
TGI [12]: 4.13E−6
BCS permeability class (Caco-2 cell monolayers [13]; Caco-2): moderate-to-high
Papp A to B (Caco-2 cell monolayers [13]; [28]): 14 ×10⁻⁶ cm/s
Papp B to A (Caco-2 cell monolayers [13]; [28]): 2.51 ×10⁻⁶ cm/s
Polarization Ratio [B-A/A-B] (Caco-2 cell monolayers [13]; [28]): 0.18
CC50 [14]: 28.4 µM
CC50 [15]: 22.8 µM
CC50 [16]: 30.8 µM
CC50 [17]: 35.3 µM
CC50 [18]: 13.4 µM
CC50 [19]: 37 µM
CC50 [20]: 15.9 µM
CC50 [21]: 53.9 µM
CC50 [22]: 11 µM
Papp A→B at 90 min, 1 μM (in vitro [23]; Caco-2, pH 7.4, Papp A to B): 13.8 ×10⁻⁶ cm/s
Papp B→A at 90 min, 1 μM (in vitro [23]; Caco-2, pH 7.4, Papp B to A): 2.35 ×10⁻⁶ cm/s
efflux ratio at 90 min, 1 μM (in vitro [23]; Caco-2, pH 7.4, Polarization Ratio [B-A/A-B]): 0.1 to 0.2
recovery at 90 min, 1 μM [24]: 35%

CN(C)CCOc1ccc(CCCCc2ccc(OCCN(C)C)c(OCCN(C)C)c2)cc1OCCN(C)C [Compound H, 1,4-bis{3,4-bis(2-(N,N′-dimethylamino)-ethoxy)phenyl}-butane]
EC50 [1]: 30 to 40 µM
IC50 (COS-7 cells; COS-7, read-out: COS-7 IC50): 20 to 30 µM
IC50 (A549 (lung carcinoma); Homo sapiens, A549, read-out: A549 IC50): 20 to 40 µM
IC50 [2]: 20 to 30 µM
DNA fragmentation [3]: Positive
IC50 (survivin): ~25 µM
IC50 (VEGF): > 60 µM
IC50 (MCP-1): 75 µM
melting point: 65 to 67 °C
recovery at 90 min, 20 μM (in vitro [25]): 96%
Papp B→A at 90 min, 20 μM ([26]; Caco-2, pH 7.4): 10.1 ×10⁻⁶ cm/s
Papp A→B at 90 min ([26]; Caco-2, pH 7.4, BCS permeability class, from A-B Papp in Caco-2 versus mannitol and propranolol): > 14.2 ×10⁻⁶ cm/s
Papp A→B at 90 min, 20 μM ([26]; Caco-2, pH 7.4, Papp A to B, Caco-2, nominal conc. 20 μM, 90 minutes, duplicate monolayers): 66.7 ×10⁻⁶ cm/s
efflux ratio at 90 min, 20 μM ([26]; Caco-2, pH 7.4, Polarization Ratio [B-A/A-B], Caco-2, nominal conc. 20 μM): 0.1 to 0.2
Polarization Ratio [B-A/A-B] (Caco-2 cell monolayers [27]): 0.15
Papp A to B (Caco-2 cell monolayers [27]; [29]): 64.4 ×10⁻⁶ cm/s
Papp B to A (Caco-2 cell monolayers [27]; [29]): 10.1 ×10⁻⁶ cm/s
Mass Balance A to B (Caco-2 cell monolayers [27]; recovery from apical and basolateral chambers, duplicates): ≧100%
